Data on 33 compounds can be found in patent US7943628B2, “Pyrimidine derivatives” (Pfizer Limited, priority 2005, dated 2011).

The assay has as its target T1, histamine H4 receptor (Homo sapiens, UniProt Q9H3N8).
T1 construct: expressed in transfected cells; host or cells: CHO cells
In words: H4 binding, method 1 ([3H]-histamine filtration binding on CHO cell membranes). Conditions: for Ki: H4 binding, method 1, Ki calculated from IC50 (Cheng-Prussoff). An outline of the steps: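 Membranes from CHO cells expressing human H4 receptor (20-35 μg/well) incubated 90 min at room temperature with 3 nM [3H]-histamine in 50 mM Tris-HCl pH 7.4, ± competitor. Bound label separated by filtration on PEI-soaked GF/B filters and counted by scintillation; non-specific binding with 10 μM JNJ7777120.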

T1 sequence (Q9H3N8 whole entry): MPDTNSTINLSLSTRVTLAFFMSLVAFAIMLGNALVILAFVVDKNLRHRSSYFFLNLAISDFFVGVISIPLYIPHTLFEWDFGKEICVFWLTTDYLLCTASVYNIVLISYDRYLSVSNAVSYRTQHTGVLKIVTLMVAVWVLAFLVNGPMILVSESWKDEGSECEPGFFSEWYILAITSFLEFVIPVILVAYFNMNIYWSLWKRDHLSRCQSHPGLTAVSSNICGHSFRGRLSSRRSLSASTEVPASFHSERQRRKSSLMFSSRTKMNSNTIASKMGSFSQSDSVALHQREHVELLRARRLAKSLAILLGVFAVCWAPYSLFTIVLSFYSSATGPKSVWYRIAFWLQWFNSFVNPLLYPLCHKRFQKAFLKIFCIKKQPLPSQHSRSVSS

For orientation: Ki means a measure of affinity in units of concentration, obtained from inhibition or displacement. `CNC1CN(c2cc(N3CC(F)(F)C3)nc(N)n2)C1` [Example 236, 4-(3,3-Difluoroazetidin-1-yl)-6-[3-(methylamino)azetidin-1-yl]pyrimidin-2-amine]: the Ki is 205 nM.
On to `CC(C)Nc1cc(N2CCC3NCCC3C2)nc(N)n1` (stereo not drawn) [Example 231, N^4-Isopropyl-6-(octahydro-5H-pyrrolo[3,2-c]pyridin-5-yl)pyrimidine-2,4-diamine], for which the inhibition constant (Ki) was 131 nM.
Same read-out and setting: the figure for `C[C@@H]1CN(c2cc(NCc3cccc(F)c3)nc(N)n2)CCN1` [Example 267, N^4-(3-Fluorobenzyl)-6-[(3R)-3-methylpiperazin-1-yl]pyrimidine-2,4-diamine] is 715 nM.
As for `CCNc1cc(N2CCCN(C)CC2)nc(N)n1` [Example 185, N^4-Ethyl-6-(4-methyl-1,4-diazepan-1-yl)pyrimidine-2,4-diamine], the Ki is 20.5 nM.
On the same count and under the same terms, as for `CC(C)Nc1cc(N2CCCN(C)CC2)nc(N)n1` [Example 198, N^4-isoPropyl-6-(4-methyl-1,4-diazepan-1-yl)pyrimidine-2,4-diamine], the figure is 33.6 nM.
Turning to `CC(C)Nc1cc(N2CCC(N)CC2)nc(N)n1` [Example 234, 6-(4-Aminopiperidin-1-yl)-N^4-isopropylpyrimidine-2,4-diamine], the Ki is 177 nM.
On the same count and under the same terms, as for `CN[C@@H]1CCN(c2cc(NCc3cccc(F)c3F)nc(N)n2)C1` [Example 272, N^4-(2,3-Difluorobenzyl)-6-[(3R)-3-(methylamino)pyrrolidin-1-yl]pyrimidine-2,4-diamine], the figure is 901 nM; as for `CCC(C)CNc1cc(N2CC(NC)C2)nc(N)n1` (stereo not drawn) [Example 128, 6-[3-(Methylamino)azetidin-1-yl]-N^4-(2-methylbutyl)pyrimidine-2,4-diamine], 0.805 nM; as for `CN[C@@H]1CCN(c2cc(NC(C)C)ncn2)C1` [Example 202, N-Isopropyl-6-[(3R)-3-(methylamino)pyrrolidin-1-yl]pyrimidin-4-amine], 36.5 nM.
On the same count and under the same terms, as for `CC(C)(C)CCNc1cc(N2CC(N3CCCC3)C2)ncn1` [Example 244, N-(3,3-Dimethylbutyl)-6-(3-pyrrolidin-1-ylazetidin-1-yl)pyrimidin-4-amine], the figure is 297 nM; as for `CNC1CN(c2cc(NCc3cccc(F)c3F)nc(N)n2)C1` [Example 131, N^4-(2,3-Difluorobenzyl)-6-[3-(methylamino)azetidin-1-yl]pyrimidine-2,4-diamine], 17.8 nM.
As to `CC(C)(C)CNc1cc(N2CC(N3CCOCC3)C2)nc(N)n1` [Example 287, N^4-(2,2-Dimethylpropyl)-6-(3-morpholin-4-ylazetidin-1-yl)pyrimidine-2,4-diamine], the inhibition constant (Ki) is 2000 nM.
The same measure, in the same setting: as for `C[C@H]1CN(c2cc(NCc3cccc(F)c3)nc(N)n2)CCN1` [Example 228, N^4-(3-Fluorobenzyl)-6-[(3S)-3-methylpiperazin-1-yl]pyrimidine-2,4-diamine], the figure is 117 nM; as for `CNC1CN(c2cc(NC3CC3)ncn2)C1` [Example 189, N-Cyclopropyl-6-[3-(methylamino)azetidin-1-yl]pyrimidin-4-amine], 25.8 nM; as for `CC(C)(C)CCNc1cc(N2CC[C@@H](N)C2)nc(N)n1` [Example 225, 6-[(3R)-3-Aminopyrrolidin-1-yl]-N^4-(3,3-dimethylbutyl)pyrimidine-2,4-diamine], 102 nM.
On the same count and under the same terms, the figure for `CN(C)[C@H]1CCN(c2cc(NCCC(C)(C)C)ncn2)C1` [Example 2, 6-[(3S)-3-(Dimethylamino)pyrrolidin-1-yl]-N-(3,3-dimethylbutyl)pyrimidin-4-amine] is 485 nM; for `CN[C@H]1CCN(c2cc(NC(C)(C)C)nc(N)n2)C1` [Example 207, N^4-(tert-Butyl)-6-[(3S)-3-(methylamino)pyrrolidin-1-yl]pyrimidine-2,4-diamine] it is 43.3 nM; for `CN[C@@H]1CCN(c2cc(NC3CCC3)ncn2)C1` [Example 181, N-Cyclobutyl-6-[(3R)-3-(methylamino)pyrrolidin-1-yl]pyrimidin-4-amine] it is 17.6 nM.
On the same count and under the same terms, the figure for `CCNc1cc(N2CCC(N)CC2)nc(N)n1` [Example 139, 6-(4-Aminopiperidin-1-yl)-N^4-ethylpyrimidine-2,4-diamine] is 12.1 nM; for `CC(C)(C)CCNc1cc(N[C@H]2CCNC2)nc(N)n1` [Example 101, N^4-(3,3-Dimethylbutyl)-N^6-[(3S)-pyrrolidin-3-yl]pyrimidine-2,4,6-triamine] it is 463 nM; for `CNc1cc(N2CCC(N)CC2)nc(N)n1` [Example 284, 6-(4-Aminopiperidin-1-yl)-N^4-methylpyrimidine-2,4-diamine] it is 1720 nM.
As to `CC(C)(C)CNc1cc(NC2C3CNCC32)nc(N)n1` (stereo not drawn) [Example 222, N^4-[(1R*,5S*,6s*)-3-Azabicyclo[3.1.0]hex-6-yl]-N^6-(2,2-dimethylpropyl)pyrimidine-2,4,6-triamine], the Ki is 95.2 nM.
Usually inhibition stands for how much of the control response was suppressed. High values mean a response far below the control, low ones a response near the control. Where the note is “1.5 h”, `Nc1nc(NCC2CC2)cc(N2CC(N3CCOCC3)C2)n1` [Example 322, N^4-(Cyclopropylmethyl)-6-(3-morpholin-4-ylazetidin-1-yl)pyrimidine-2,4-diamine] had an inhibition at 20 µM of 57%.
For the compound `CC(C)Nc1cc(N2C[C@@H]3CCCN[C@@H]3C2)nc(N)n1` [Example 169, N^4-Isopropyl-6-[(4aS,7aS)-octahydro-6H-pyrrolo[3,4-b]pyridin-6-yl]pyrimidine-2,4-diamine], the Ki is 6.77 nM.
The same measure, in the same setting: the figure for `CCCNc1cc(N2CC[C@@H](NC)C2)nc(N)n1` [Example 180, 6-[(3R)-3-(Methylamino)pyrrolidin-1-yl]-N^4-propylpyrimidine-2,4-diamine] is 17.4 nM; for `CN1CCCC(Nc2cc(NCCC(C)(C)C)ncn2)C1` (stereo not drawn) [Example 288, N-(3,3-Dimethylbutyl)-N′-(1-methylpiperidin-3-yl)pyrimidine-4,6-diamine] it is 2400 nM; for `CC(C)(C)CCNc1cc(N[C@@H]2CCNC2)ncn1` [Example 7, N-(3.3-Dimethylbutyl)-N′-[(3R)-pyrrolidin-3-yl]pyrimidine-4,6-diamine] it is 939 nM.
Still for that read-out and setting: as for `CN[C@@H]1CCN(c2cc(NC3CCC3)nc(N)n2)C1` [Example 199, N^4-Cyclobutyl-6-[(3R)-3-(methylamino)pyrrolidin-1-yl]pyrimidine-2,4-diamine], the figure is 33.9 nM; as for `Nc1nc(NC2CC2)cc(N2CCC(N)CC2)n1` [Example 269, 6-(4-Aminopiperidin-1-yl)-N^4-cyclopropylpyrimidine-2,4-diamine], 839 nM.
Still for that read-out and setting: the figure for `CC(C)(C)CNc1cc(N2CC(N3CCCC3)C2)nc(N)n1` [Example 142, N^4-(2,2-Dimethylpropyl)-6-(3-pyrrolidin-1-ylazetidin-1-yl)pyrimidine-2,4-diamine] is 3.04 nM; for `CNCC1CN(c2cc(NCC3CC3)nc(N)n2)C1` [Example 227, N^4-(Cyclopropylmethyl)-6-{3-[(methylamino)methyl]azetidin-1-yl}pyrimidine-2,4-diamine] it is 115 nM.
On to `CC(C)CNc1cc(N2C[C@H]3CNC[C@H]3C2)nc(N)n1` [Example 217, 6-[(3aR*,6aS*)-Hexahydropyrrolo[3,4-c]pyrrol-2(1H)-yl]-N^4-isobutylpyrimidine-2,4-diamine], for which the inhibitory constant (Ki) is 80.6 nM.
Same read-out and setting: as for `CCNc1cc(N2CC(N3CCCC3)C2)nc(N)n1` [Example 197, N^4-Ethyl-6-(3-pyrrolidin-1-ylazetidin-1-yl)pyrimidine-2,4-diamine], the figure is 33.2 nM.
